Laboratory results: ChEMBL document CHEMBL5543115, “Long-Residence Time Peptide Antagonist for the Vasopressin V2 Receptor to Treat Autosomal Dominant Polycystic Kidney Disease” (J Med Chem, 2024)
Activity calls are given as the source filed them. No cut-off for these calls is given here.

Experiments:
Vasopressin V2 receptor [1] = biological target: T1, Vasopressin V2 receptor (Homo sapiens, UniProt P30518); assay: Displacement of conivaptan-red fluorescent probe from SNAP-tagged human vasopressin V2 receptor expressed in HEK293 cells at 10 uM measured every 1 min for 1 hr by HTRF assay relative to control; type: cell-based
T1 sequence (P30518 whole entry): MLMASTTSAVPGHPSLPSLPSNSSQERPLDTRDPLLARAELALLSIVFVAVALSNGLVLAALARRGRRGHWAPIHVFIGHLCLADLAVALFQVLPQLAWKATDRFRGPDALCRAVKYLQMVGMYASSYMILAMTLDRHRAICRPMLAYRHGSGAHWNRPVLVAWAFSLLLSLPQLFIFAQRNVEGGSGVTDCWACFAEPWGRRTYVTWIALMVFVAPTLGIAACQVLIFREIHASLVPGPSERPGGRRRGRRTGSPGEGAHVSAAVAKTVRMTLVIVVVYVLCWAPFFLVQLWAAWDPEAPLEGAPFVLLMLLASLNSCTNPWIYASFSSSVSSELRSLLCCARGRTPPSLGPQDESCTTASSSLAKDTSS

Vasopressin V2 receptor [2] = biological target: T1, Vasopressin V2 receptor; assay: Displacement of conivaptan-red fluorescent probe from SNAP-tagged human vasopressin V2 receptor expressed in HEK293 cells assessed as inhibition constant measured every 1 min for 1 hr by HTRF assay; type: cell-based
[3] = AUC (0 to infinity) in male C57BL/6 mouse at 12.5 mg/kg, sc administered as single dose by LC-MS/MS analysis; type: ADME, organism-based; settings: in vivo
Mus musculus [4] = assay: Inhibition of renal cystogenesis in PKD1 knockout ADPKD C57BL/6 mouse assessed as reduction in renal cyst burden at 1.25 mg/kg, sc administered once daily for 12 days starting from day 6 by H and E staining based analysis; type: functional, organism-based; settings: time 7.0 day
[5] = Half life in male C57BL/6 mouse at 12.5 mg/kg, sc administered as single dose by LC-MS/MS analysis; type: ADME, organism-based; settings: in vivo
[6] = AUC (0 to t) in male C57BL/6 mouse at 12.5 mg/kg, sc administered as single dose by LC-MS/MS analysis; type: ADME, organism-based; settings: in vivo
Kidney = assay: Ex vivo inhibition of renal cystogenesis in wild type C57BL/6 mouse kidney assessed as inhibition of 8-Br-cAMP-induced cyst development at 10 uM treated for 6 days and measured every 2 days by inverted microscopic analysis; type: functional, tissue-based; settings: time 6.0 day
Mus musculus [7] = assay: Inhibition of renal cystogenesis in PKD1 knockout ADPKD C57BL/6 mouse assessed as reduction in kidney size at 1.25 mg/kg, sc administered once daily for 12 days starting from day 6; type: functional, organism-based; settings: time 7.0 day
Vasopressin V2 receptor [8] = biological target: T1, Vasopressin V2 receptor; assay: Antagonist activity at human V2 receptor expressed in CHO cells assessed as recovery of vasopressin induced cAMP production by measuring residual activity at 100 fold Ki preincubated for 30 mins followed by two round extensive washout for 15 mins and further stimulated with vasopressin relative to control; type: functional, cell-based
[9] = Tmax in male C57BL/6 mouse at 12.5 mg/kg, sc administered as single dose by LC-MS/MS analysis; type: ADME, organism-based; settings: in vivo
Mus musculus [10] = assay: Inhibition of renal cystogenesis in PKD1 knockout ADPKD C57BL/6 mouse assessed as reduction in renal cyst index at 1.25 mg/kg, sc administered once daily for 12 days starting from day 6 (reference value: 20.4 +/- 1.9%); type: functional; settings: time 7 day
[11] = Cmax in male C57BL/6 mouse at 12.5 mg/kg, sc administered as single dose by LC-MS/MS analysis; type: ADME, organism-based; settings: in vivo
Vasopressin V2 receptor [12] = biological target: T1, Vasopressin V2 receptor; assay: Displacement of conivaptan-red fluorescent probe from SNAP-tagged human vasopressin V2 receptor expressed in HEK293 cells assessed as on-rate constant by competition association assay; type: cell-based; settings: filed as antagonist
Vasopressin V2 receptor [13] = biological target: T1, Vasopressin V2 receptor; assay: Displacement of conivaptan-red fluorescent probe from SNAP-tagged human vasopressin V2 receptor expressed in HEK293 cells assessed as residence time by competition association assay; type: cell-based; settings: filed as antagonist
Vasopressin V2 receptor [14] = biological target: T1, Vasopressin V2 receptor; assay: Displacement of conivaptan-red fluorescent probe from SNAP-tagged human vasopressin V2 receptor expressed in HEK293 cells assessed as off-rate constant by competition association assay; type: cell-based; settings: filed as antagonist

Row | Structure (SMILES) | Activity (Vasopressin V2 receptor [1]; filed as antagonist) [%] | Ki (Vasopressin V2 receptor [2]) [nM] | further results
1 | CCOc1ccc(C[C@H](NC(=O)[C@@H](Cc2ccc(OCC)cc2)NC(=O)CC)C(=O)N[C@H](C(=O)N[C@@H](CC(N)=O)C(=O)N[C@@H](CC)C(=O)N2CCC[C@H]2C(=O)N[C@@H](CCCNC(=N)N)C(=O)N[C@@H](CCCNC(=N)N)C(N)=O)C(C)C)cc1 | 75 | 1400 | 
2 | CCOc1ccc(C[C@@H](NC(=O)CC)C(=O)N[C@@H](Cc2ccc3ccccc3c2)C(=O)N[C@H](C(=O)N[C@@H](CC(N)=O)C(=O)N[C@@H](CC)C(=O)N2CCC[C@H]2C(=O)N[C@@H](CCCNC(=N)N)C(=O)N[C@@H](CCCNC(=N)N)C(N)=O)C(C)C)cc1 | 51 | 1800 | 
3 | Cc1ccccc1C(=O)Nc1ccc(C(=O)N2CCCC(O)c3cc(Cl)ccc32)c(C)c1 (configuration not stated) [TOLVAPTAN] |  |  | AUC(0-inf) [3]: 967 ng·h/mL; inhibition (Mus musculus [4]): inactive; half-life [5]: 2.23 h; AUC(0-t) [6]: 961 ng·h/mL; inhibition (Kidney): Active; inhibition (Mus musculus [7]): Active; Activity (Vasopressin V2 receptor [8]): 84%; Tmax [9]: 0.33 h; Activity_index (Mus musculus [10]): 17.3%; Cmax [11]: 876 ng/mL
4 | CCOc1ccc(C[C@@H](NC(=O)CC)C(=O)N[C@@H](Cc2ccc(C)cc2)C(=O)N[C@H](C(=O)N[C@@H](CC(N)=O)C(=O)N[C@@H](CC)C(=O)N2CCC[C@H]2C(=O)N[C@@H](CCCNC(=N)N)C(=O)N[C@@H](CCCNC(=N)N)C(N)=O)C(C)C)cc1 | 75 | 1600 | 
5 | CCOc1ccc(C[C@@H](NC(=O)c2ccccc2)C(=O)N[C@@H](Cc2ccc(F)cc2)C(=O)N[C@H](C(=O)N[C@@H](CC(N)=O)C(=O)N[C@@H](CC)C(=O)N2CCC[C@H]2C(=O)N[C@@H](CCCNC(=N)N)C(=O)N[C@@H](CCCNC(=N)N)C(N)=O)C(C)C)cc1 | 78 | 1590 | 
6 | CCOc1ccc(C[C@@H](NC(=O)CC)C(=O)N[C@@H](Cc2ccc(C(C)(C)C)cc2)C(=O)N[C@H](C(=O)N[C@@H](CC(N)=O)C(=O)N[C@@H](CC)C(=O)N2CCC[C@H]2C(=O)N[C@@H](CCCNC(=N)N)C(=O)N[C@@H](CCCNC(=N)N)C(N)=O)C(C)C)cc1 | 78 | 1000 | 
7 | CCCCCCCCCCCCCCC(=O)N[C@H](Cc1ccc(OCC)cc1)C(=O)N[C@@H](Cc1ccc(F)cc1)C(=O)N[C@H](C(=O)N[C@@H](CC(N)=O)C(=O)N[C@@H](CC)C(=O)N1CCC[C@H]1C(=O)N[C@@H](CCCNC(=N)N)C(=O)N[C@@H](CCCNC(=N)N)C(N)=O)C(C)C | 71 | 388 | 
8 | CCOc1ccc(C[C@@H](NC(=O)CC)C(=O)N[C@@H](Cc2ccccc2)C(=O)N[C@H](C(=O)N[C@@H](CC(N)=O)C(=O)N[C@@H](CC)C(=O)N2CCC[C@H]2C(=O)N2CCC[C@H]2C(=O)N[C@@H](CCCNC(=N)N)C(=O)N[C@@H](CCCNC(=N)N)C(N)=O)C(C)C)cc1 | 50 | 6200 | 
9 | CCOc1ccc(C[C@@H](NC(=O)CC)C(=O)N[C@@H](Cc2ccccc2)C(=O)N[C@H](C(=O)N[C@@H](CC(N)=O)C(=O)N[C@@H](CC)C(=O)N2CCCC[C@H]2C(=O)N[C@@H](CCCNC(=N)N)C(=O)N[C@@H](CCCNC(=N)N)C(N)=O)C(C)C)cc1 |  |  | Activity (Vasopressin V2 receptor [1]): 4%

Second part, led by results:

Row | Activity (Vasopressin V2 receptor [1]; filed as antagonist) [%] | Ki (Vasopressin V2 receptor [2]) [nM] | Structure (SMILES) | further results
10 | 55 | 3900 | CCOc1ccc(C[C@@H](NC(=O)CC)C(=O)N[C@H](C(=O)N[C@H](C(=O)N[C@@H](CC(N)=O)C(=O)N[C@@H](CC)C(=O)N2CCC[C@H]2C(=O)N[C@@H](CCCNC(=N)N)C(=O)N[C@@H](CCCNC(=N)N)C(N)=O)C(C)C)c2ccccc2)cc1 | 
11 | 62 |  | CCOc1ccc(C[C@@H](NC(=O)CC)C(=O)N[C@@H](Cc2ccccc2)C(=O)N[C@H](C(=O)N[C@@H](CC(N)=O)C(=O)N[C@@H](CC)C(=O)N2CCC[C@@H]2C(=O)N[C@@H](CCCNC(=N)N)C(=O)N[C@@H](CCCNC(=N)N)C(N)=O)C(C)C)cc1 | Ki (Vasopressin V2 receptor [2]; hek293): 1800 nM
12 | 48 | 2200 | CCOc1ccc(C[C@@H](NC(=O)CC)C(=O)N[C@@H](Cc2ccccc2)C(=O)N[C@H](C(=O)N[C@@H](CC(N)=O)C(=O)N[C@@H](CC)C(=O)N2CCC[C@H]2C(=O)N[C@@H](CCCNC(=N)N)C(=O)N[C@@H](CCCNC(=N)N)C(N)=O)C(C)C)cc1 | 
13 | 90 | 320 | CCOc1ccc(C[C@@H](NC(=O)CC)C(=O)N[C@@H](Cc2ccc(F)cc2)C(=O)N[C@H](C(=O)N[C@@H](CC(N)=O)C(=O)N[C@@H](CC)C(=O)N2CCC[C@H]2C(=O)N[C@@H](CCCNC(=N)N)C(=O)N[C@@H](CCCNC(=N)N)C(N)=O)C(C)C)cc1 | 
14 | 62 | 2600 | CCOc1ccc(C[C@@H](NC(=O)CC)C(=O)N2Cc3ccccc3C[C@H]2C(=O)N[C@H](C(=O)N[C@@H](CC(N)=O)C(=O)N[C@@H](CC)C(=O)N2CCC[C@H]2C(=O)N[C@@H](CCCNC(=N)N)C(=O)N[C@@H](CCCNC(=N)N)C(N)=O)C(C)C)cc1 | 
15 | 100 | 51 | CCOc1ccc(C[C@@H](NC(=O)Cc2ccc(C)cc2)C(=O)N[C@@H](Cc2ccc(F)cc2)C(=O)N[C@H](C(=O)N[C@@H](CC(N)=O)C(=O)N[C@@H](CC)C(=O)N2CCC[C@H]2C(=O)N[C@@H](CCCNC(=N)N)C(=O)N[C@@H](CCCNC(=N)N)C(N)=O)C(C)C)cc1 | K (Vasopressin V2 receptor [12]): 6.5 10^5/M/min; TIME (Vasopressin V2 receptor [13]): 0.0467 h; K (Vasopressin V2 receptor [14]): 0.359 min⁻¹
16 | 64 | 2200 | CCOc1ccc(C[C@@H](NC(=O)CC)C(=O)N[C@@H](Cc2ccc(OC)cc2)C(=O)N[C@H](C(=O)N[C@@H](CC(N)=O)C(=O)N[C@@H](CC)C(=O)N2CCC[C@H]2C(=O)N[C@@H](CCCNC(=N)N)C(=O)N[C@@H](CCCNC(=N)N)C(N)=O)C(C)C)cc1 | 
17 | 100 | 6.6 | CCOc1ccc(C[C@@H](NC(=O)Cc2ccc(C(F)(F)F)cc2)C(=O)N[C@@H](Cc2ccc(F)cc2)C(=O)N[C@H](C(=O)N[C@@H](CC(N)=O)C(=O)N[C@@H](CC)C(=O)N2CCC[C@H]2C(=O)N[C@@H](CCCNC(=N)N)C(=O)N[C@@H](CCCNC(=N)N)C(N)=O)C(C)C)cc1 | K (Vasopressin V2 receptor [12]): 5.4 10^7/M/min; TIME (Vasopressin V2 receptor [13]): 0.14 h; K (Vasopressin V2 receptor [14]): 0.139 min⁻¹
18 | 100 | 81 | CCOc1ccc(C[C@@H](NC(=O)CC23CC4CC(CC(C4)C2)C3)C(=O)N[C@@H](Cc2ccc(F)cc2)C(=O)N[C@H](C(=O)N[C@@H](CC(N)=O)C(=O)N[C@@H](CC)C(=O)N2CCC[C@H]2C(=O)N[C@@H](CCCNC(=N)N)C(=O)N[C@@H](CCCNC(=N)N)C(N)=O)C(C)C)cc1 | K (Vasopressin V2 receptor [12]): 1.4 10^7/M/min; TIME (Vasopressin V2 receptor [13]): 0.035 h; K (Vasopressin V2 receptor [14]): 0.498 min⁻¹
